Each compound was assayed against T1, recombinant DDB1-CRBN (Homo sapiens, UniProt Q96SW2) (assay: Fluorescence polarization-based competition assay for CRBN binding). Details: 200 nM CRBN-DDB1, 20 nM pomalidomide-fluorescein tracer 16, triplicates; read-out: FP_CRBN_binding: CRBN binding affinity, EC50.
T1 construct: His; made in house; host or cells: High Five insect cells (baculovirus made and propagated in SF9 cells)
Description: Prior to screening the compound library in the isogenic CPA, we assessed their CRBN binding affinities using a fluorescence-polarization-based competition assay with recombinant DDB1-CRBN and the fluorescent tracer 16 (Figure S2). […] We also assessed the cytotoxicity of the CRBN binders in RKO wild-type (WT) cells to determine the appropriate treatment concentration. […]
Fluorescence Polarization‐based competition assay
Fluorescence Polarization assays were performed in 384‐well, Low Volume, Black, Round Bottom, Polystyrene Nonbinding surface Microplates (Corning, #4514). The test compounds were incubated with 200 nM CRBN‐DDB1 and 20 nM Pomalidomide‐fluorescein tracer 16 in 50 mM Tris‐HCl pH 7.5, 200 mM NaCl, 1 mM DTT, 0.02% Triton X‐ 100, and 0.1 µg/µL Bovine Serum Albumin (Sigma Aldrich, #A7030) in a total volume of 25 µL. Fluorescence polarization values were determined with a PerkinElmer Envision reader with FITC FP dual mirror and FITC FP 480 excitation filter and FITC FP 535 emission filters. Fluorescence polarization values of a 10x serial dilution (10 nM to 100 µM) of the test compounds were determined in triplicates. EC50 values were calculated with GraphPad Prism software (version 10.0.2) with a non‐linear fit function (4PL sigmoidal curve fit) adjusting the bottom constrain to the FP value of free tracer. […]
An EC50 of 502 nM was found for `CN(Cc1ccc2[nH]nnc2c1)S(=O)(=O)Oc1ccc(C2CCC(=O)NC2=O)cc1` (centres unmarked) [FL5-15] in this work. An EC50 of 742 nM was found for `CC1c2cccn2CCN1S(=O)(=O)Oc1cccc(Nc2cccc3c2C(=O)N(C2CCC(=O)NC2=O)C3=O)c1` (centres unmarked) [FL3-19] in this work. An EC50 of 1170 nM was found for `CN(Cc1ccc2[nH]nnc2c1)S(=O)(=O)Oc1cccc(Nc2ccc3c(c2)C(=O)N(C2CCC(=O)NC2=O)C3=O)c1` (centres unmarked) [FL1-15] in this work. An EC50 of 864 nM was found for `CC1(C)CN(S(=O)(=O)Oc2ccc(C3CCC(=O)NC3=O)cc2)CCS1(=O)=O` (centres unmarked) [FL5-7] in this work. An EC50 of 1060 nM was found for `O=C1CCC(c2ccc(OS(=O)(=O)N3CC(CCO)C3)cc2)C(=O)N1` (centres unmarked) [FL5-2] in this work. An EC50 of 449 nM was found for `CN(Cc1ncnn1C)S(=O)(=O)Oc1cccc(Nc2cccc3c2C(=O)N(C2CCC(=O)NC2=O)C3=O)c1` (centres unmarked) [FL3-11] in this work. An EC50 of 4220 nM was found for `O=C1CCC(c2ccc(OS(=O)(=O)N3CCC(c4ccncc4)CC3)cc2)C(=O)N1` (centres unmarked) [FL5-16] in this work. An EC50 of 446 nM was found for `CC(C)(O)C1CCN(S(=O)(=O)Oc2cccc(Nc3cccc4c3C(=O)N(C3CCC(=O)NC3=O)C4=O)c2)C1` (centres unmarked) [FL3-4] in this work. An EC50 of 458 nM was found for `O=C1CCC(N2C(=O)c3ccc(Nc4ccc(OS(=O)(=O)N5CCOCC5)cc4)cc3C2=O)C(=O)N1` (centres unmarked) [FL2-5] in this work. An EC50 of 445 nM was found for `C[C@@H](O)CN(C)S(=O)(=O)Oc1ccc(Nc2ccc3c(c2)C(=O)N(C2CCC(=O)NC2=O)C3=O)cc1` (some centres unmarked) [FL2-1] in this work. An EC50 of 1250 nM was found for `O=C1CCC(c2cccc(OS(=O)(=O)N3CC(CCO)C3)c2)C(=O)N1` (centres unmarked) [FL6-2] in this work. An EC50 of 705 nM was found for `O=C1CCC(c2ccc(OS(=O)(=O)N3CCC(c4ccco4)C3)cc2)C(=O)N1` (centres unmarked) [FL5-12] in this work. An EC50 of 330 nM was found for `O=C1CCC(N2C(=O)c3cccc(Nc4cccc(OS(=O)(=O)N5CC6(CNC(=O)N6)C5)c4)c3C2=O)C(=O)N1` (centres unmarked) [FL3-9] in this work. An EC50 of 2700 nM was found for `O=C1CCC(N2C(=O)c3cccc(Nc4cccc(OS(=O)(=O)N5CCC(c6ccco6)C5)c4)c3C2=O)C(=O)N1` (centres unmarked) [FL3-12] in this work. An EC50 of 1570 nM was found for `CN(Cc1ccc2c(c1)OCO2)S(=O)(=O)Oc1cccc(Nc2cccc3c2C(=O)N(C2CCC(=O)NC2=O)C3=O)c1` (centres unmarked) [FL3-20] in this work. An EC50 of 321 nM was found for `C[C@@H](O)CN(C)S(=O)(=O)Oc1cccc(Nc2ccc3c(c2)C(=O)N(C2CCC(=O)NC2=O)C3=O)c1` (some centres unmarked) [FL1-1] in this work. An EC50 of 898 nM was found for `CC1c2cccn2CCN1S(=O)(=O)Oc1cccc(Nc2ccc3c(c2)C(=O)N(C2CCC(=O)NC2=O)C3=O)c1` (centres unmarked) [FL1-19] in this work. An EC50 of 983 nM was found for `CC1c2cc(F)ccc2CCN1S(=O)(=O)Oc1ccc(Nc2cccc3c2C(=O)N(C2CCC(=O)NC2=O)C3=O)cc1` (centres unmarked) [FL4-17] in this work. An EC50 of 914 nM was found for `C[C@@H](O)CN(C)S(=O)(=O)Oc1ccc(C2CCC(=O)NC2=O)cc1` (some centres unmarked) [FL5-1] in this work. An EC50 of 908 nM was found for `CC1c2cc(F)ccc2CCN1S(=O)(=O)Oc1ccc(C2CCC(=O)NC2=O)cc1` (centres unmarked) [FL5-17] in this work. An EC50 of 1270 nM was found for `O=C1CCC(N2C(=O)c3ccc(Nc4ccc(OS(=O)(=O)N5C[C@@H](F)[C@H](F)C5)cc4)cc3C2=O)C(=O)N1` (some centres unmarked) [FL2-10] in this work. An EC50 of 3030 nM was found for `C[C@@H]1C[C@H](C)CN(S(=O)(=O)Oc2cccc(Nc3ccc4c(c3)C(=O)N(C3CCC(=O)NC3=O)C4=O)c2)C1` (some centres unmarked) [FL1-6] in this work. An EC50 of 1720 nM was found for `CN(Cc1ccc2c(c1)OCO2)S(=O)(=O)Oc1ccc(Nc2cccc3c2C(=O)N(C2CCC(=O)NC2=O)C3=O)cc1` (centres unmarked) [FL4-20] in this work. An EC50 of 675 nM was found for `O=C1CCC(N2C(=O)c3ccc(Nc4ccc(OS(=O)(=O)N5CC(CCO)C5)cc4)cc3C2=O)C(=O)N1` (centres unmarked) [FL2-2] in this work. An EC50 of 1300 nM was found for `CC(C)(O)C1CCN(S(=O)(=O)Oc2cccc(C3CCC(=O)NC3=O)c2)C1` (centres unmarked) [FL6-4] in this work. An EC50 of 731 nM was found for `CC1(C)CN(S(=O)(=O)Oc2ccc(Nc3ccc4c(c3)C(=O)N(C3CCC(=O)NC3=O)C4=O)cc2)CCS1(=O)=O` (centres unmarked) [FL2-7] in this work. An EC50 of 1070 nM was found for `CN(C1CC1)S(=O)(=O)Oc1cccc(C2CCC(=O)NC2=O)c1` (centres unmarked) [FL6-21] in this work. An EC50 of 948 nM was found for `CC(C)(O)C1CCN(S(=O)(=O)Oc2ccc(C3CCC(=O)NC3=O)cc2)C1` (centres unmarked) [FL5-4] in this work. An EC50 of 1140 nM was found for `CN(C1CC1)S(=O)(=O)Oc1ccc(Nc2ccc3c(c2)C(=O)N(C2CCC(=O)NC2=O)C3=O)cc1` (centres unmarked) [FL2-21] in this work. An EC50 of 794 nM was found for `CN(C)c1ncc(CN(C)S(=O)(=O)Oc2cccc(C3CCC(=O)NC3=O)c2)cn1` (centres unmarked) [FL6-18] in this work. An EC50 of 435 nM was found for `O=C1CCC(N2C(=O)c3ccc(Nc4cccc(OS(=O)(=O)N5CC6(CNC(=O)N6)C5)c4)cc3C2=O)C(=O)N1` (centres unmarked) [FL1-9] in this work. An EC50 of 481 nM was found for `CC(C)(O)C1CCN(S(=O)(=O)Oc2cccc(Nc3ccc4c(c3)C(=O)N(C3CCC(=O)NC3=O)C4=O)c2)C1` (centres unmarked) [FL1-4] in this work. An EC50 of 1290 nM was found for `CC1c2cc(F)ccc2CCN1S(=O)(=O)Oc1ccc(Nc2ccc3c(c2)C(=O)N(C2CCC(=O)NC2=O)C3=O)cc1` (centres unmarked) [FL2-17] in this work. An EC50 of 961 nM was found for `C[C@@H]1C[C@H](C)CN(S(=O)(=O)Oc2cccc(C3CCC(=O)NC3=O)c2)C1` (some centres unmarked) [FL6-6] in this work. An EC50 of 586 nM was found for `CN(C)c1ncc(CN(C)S(=O)(=O)Oc2ccc(C3CCC(=O)NC3=O)cc2)cn1` (centres unmarked) [FL5-18] in this work. An EC50 of 1340 nM was found for `CC1(C)CN(S(=O)(=O)Oc2ccc(C3CCC(=O)NC3=O)cc2)CC2(CCOC2)O1` (centres unmarked) [FL5-8] in this work. An EC50 of 4690 nM was found for `C[C@@H]1C[C@H](C)CN(S(=O)(=O)Oc2ccc(C3CCC(=O)NC3=O)cc2)C1` (some centres unmarked) [FL5-6] in this work. An EC50 of 882 nM was found for `CN(Cc1ncc(C2CC2)o1)S(=O)(=O)Oc1cccc(Nc2cccc3c2C(=O)N(C2CCC(=O)NC2=O)C3=O)c1` (centres unmarked) [FL3-14] in this work. An EC50 of 1960 nM was found for `CC1(C)CN(S(=O)(=O)Oc2ccc(Nc3cccc4c3C(=O)N(C3CCC(=O)NC3=O)C4=O)cc2)CC2(CCOC2)O1` (centres unmarked) [FL4-8] in this work. An EC50 of 874 nM was found for `CC1c2cccn2CCN1S(=O)(=O)Oc1cccc(C2CCC(=O)NC2=O)c1` (centres unmarked) [FL6-19] in this work. An EC50 of 2770 nM was found for `C[C@@H]1C[C@H](C)CN(S(=O)(=O)Oc2cccc(Nc3cccc4c3C(=O)N(C3CCC(=O)NC3=O)C4=O)c2)C1` (some centres unmarked) [FL3-6] in this work. An EC50 of 803 nM was found for `CC1c2cc(F)ccc2CCN1S(=O)(=O)Oc1cccc(C2CCC(=O)NC2=O)c1` (centres unmarked) [FL6-17] in this work. An EC50 of 445 nM was found for `O=C1CCC(N2C(=O)c3cccc(Nc4ccc(OS(=O)(=O)N5CC6(CNC(=O)N6)C5)cc4)c3C2=O)C(=O)N1` (centres unmarked) [FL4-9] in this work. An EC50 of 264 nM was found for `O=C1CCC(N2C(=O)c3cccc(Nc4cccc(OS(=O)(=O)N5CCC(c6ccncc6)CC5)c4)c3C2=O)C(=O)N1` (centres unmarked) [FL3-16] in this work. An EC50 of 1970 nM was found for `O=C1CCC(N2C(=O)c3ccc(Nc4ccc(OS(=O)(=O)N5CCC(c6ccncc6)CC5)cc4)cc3C2=O)C(=O)N1` (centres unmarked) [FL2-16] in this work. An EC50 of 911 nM was found for `CC1(C)CN(S(=O)(=O)Oc2cccc(Nc3cccc4c3C(=O)N(C3CCC(=O)NC3=O)C4=O)c2)CC2(CCOC2)O1` (centres unmarked) [FL3-8] in this work. An EC50 of 1020 nM was found for `CN(C1CC1)S(=O)(=O)Oc1cccc(Nc2cccc3c2C(=O)N(C2CCC(=O)NC2=O)C3=O)c1` (centres unmarked) [FL3-21] in this work. An EC50 of 682 nM was found for `O=C1CCC(N2C(=O)c3ccc(Nc4cccc(OS(=O)(=O)N5CCC(c6ccncc6)CC5)c4)cc3C2=O)C(=O)N1` (centres unmarked) [FL1-16] in this work. An EC50 of 741 nM was found for `CC1(C)CN(S(=O)(=O)Oc2ccc(Nc3cccc4c3C(=O)N(C3CCC(=O)NC3=O)C4=O)cc2)CCS1(=O)=O` (centres unmarked) [FL4-7] in this work. An EC50 of 2620 nM was found for `CN(Cc1ccc2c(c1)OCO2)S(=O)(=O)Oc1ccc(Nc2ccc3c(c2)C(=O)N(C2CCC(=O)NC2=O)C3=O)cc1` (centres unmarked) [FL2-20] in this work. An EC50 of 4780 nM was found for `O=C1CCC(N2C(=O)c3ccc(Nc4ccc(OS(=O)(=O)N5CCC(c6ccco6)C5)cc4)cc3C2=O)C(=O)N1` (centres unmarked) [FL2-12] in this work. An EC50 of 301 nM was found for `O=C1CCC(N2C(=O)c3ccc(Nc4cccc(OS(=O)(=O)N5CCOCC5)c4)cc3C2=O)C(=O)N1` (centres unmarked) [FL1-5] in this work. An EC50 of 996 nM was found for `CN(Cc1ncc(C2CC2)o1)S(=O)(=O)Oc1ccc(Nc2cccc3c2C(=O)N(C2CCC(=O)NC2=O)C3=O)cc1` (centres unmarked) [FL4-14] in this work.
